Test results published in patent US11236083B2, “Compounds and pharmaceutical compositions for modulating SGK activity, and methods thereof” (NEW ERA PHARMA, INC., priority 2016, dated 2022).
Several values for one entry are separate records, joined by “and”; a condition that tells them apart may be missing. Equal values may be shown once. Read-outs that look alike come from different tables or passages of the source.

How the values were obtained:
[1] = biological target: T1, Sgk2 (Homo sapiens, UniProt Q9HBY8); experiment: Enzyme based assay for SGK2 (biotinylated Akt Substrates-2 peptide, Eu3+ Cryptate/XL665 detection); assay type: biochemical
T1 sequence (Q9HBY8 1-367): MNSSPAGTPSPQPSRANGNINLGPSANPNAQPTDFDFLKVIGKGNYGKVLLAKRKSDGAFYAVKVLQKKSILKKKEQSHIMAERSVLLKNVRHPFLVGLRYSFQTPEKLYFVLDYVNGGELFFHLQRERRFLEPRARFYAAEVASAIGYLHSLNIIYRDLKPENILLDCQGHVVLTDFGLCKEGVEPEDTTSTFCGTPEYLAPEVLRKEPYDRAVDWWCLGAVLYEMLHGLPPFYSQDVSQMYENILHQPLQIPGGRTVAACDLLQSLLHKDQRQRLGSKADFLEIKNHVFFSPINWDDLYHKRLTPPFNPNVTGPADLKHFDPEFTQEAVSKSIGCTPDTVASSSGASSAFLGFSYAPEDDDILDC
Protocol: (§1) 1. Enzyme Based Assays for SGK1, SGK2, SGK3, and Akt1
(§2) The kinase enzymatic reaction is carried out with a biotinylated Akt Substrates-2 peptide substrate. The phosphorylated substrate is then detected using a specific anti-phospho peptide antibody which is coupled with Eu^3+ Cryptate and XL665 conjugated with streptavidin.
(§3) Exemplary Assay Conditions
(§4) • Enzyme: ˜0.1 nM • Substrate: 0.2 μM • ATP: 50 μM and 1 mM • Mg^2+: 10 mM • Reaction time: 60 min with 50 μM ATP and 30 min with 1 mM ATP • SA-XL to Biotin: 1:10
(§5) Detailed Steps • 1. prepare the enzyme and substrate solution with the buffer from Cisbio • 2. add the enzyme and substrate solution to the diluted compound plate • 3. transfer 5 μL of compound, enzyme, and substrate mixture to an 384-well assay plate • 4. add 5 μL ATP (with Mg^2+) solution to initiate the reaction • 5. after certain time, add 10 μL of stop solution containing SA-XL and specific antibody • 6. read the plate after 2 h incubation at rt • 7. process the data using prizm software (Exemplary results are shown in FIG. 1.) 2. PK Studies Protocol

[2] = biological target: T2, Sgk1 (Homo sapiens, UniProt O00141); experiment: Enzyme based assay for SGK1 (biotinylated Akt Substrates-2 peptide, Eu3+ Cryptate/XL665 detection); assay type: biochemical
T2 sequence (O00141 1-431): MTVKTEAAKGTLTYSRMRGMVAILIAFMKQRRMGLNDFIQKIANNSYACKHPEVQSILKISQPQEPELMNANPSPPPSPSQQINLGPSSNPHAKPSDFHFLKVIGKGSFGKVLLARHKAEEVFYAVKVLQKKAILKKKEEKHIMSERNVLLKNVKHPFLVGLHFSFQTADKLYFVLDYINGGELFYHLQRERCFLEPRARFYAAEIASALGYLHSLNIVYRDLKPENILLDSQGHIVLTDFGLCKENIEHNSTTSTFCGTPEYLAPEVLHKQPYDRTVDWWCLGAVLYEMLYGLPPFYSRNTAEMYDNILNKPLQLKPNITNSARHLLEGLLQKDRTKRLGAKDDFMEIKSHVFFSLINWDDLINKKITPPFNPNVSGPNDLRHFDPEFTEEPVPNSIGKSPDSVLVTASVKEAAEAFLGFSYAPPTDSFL
Protocol: as §1, §2, §3, §4, §5

[3] = biological target: T3, Sgk3 (Homo sapiens, UniProt Q96BR1); experiment: Enzyme based assay for SGK3; assay type: biochemical
T3 sequence (Q96BR1 1-496): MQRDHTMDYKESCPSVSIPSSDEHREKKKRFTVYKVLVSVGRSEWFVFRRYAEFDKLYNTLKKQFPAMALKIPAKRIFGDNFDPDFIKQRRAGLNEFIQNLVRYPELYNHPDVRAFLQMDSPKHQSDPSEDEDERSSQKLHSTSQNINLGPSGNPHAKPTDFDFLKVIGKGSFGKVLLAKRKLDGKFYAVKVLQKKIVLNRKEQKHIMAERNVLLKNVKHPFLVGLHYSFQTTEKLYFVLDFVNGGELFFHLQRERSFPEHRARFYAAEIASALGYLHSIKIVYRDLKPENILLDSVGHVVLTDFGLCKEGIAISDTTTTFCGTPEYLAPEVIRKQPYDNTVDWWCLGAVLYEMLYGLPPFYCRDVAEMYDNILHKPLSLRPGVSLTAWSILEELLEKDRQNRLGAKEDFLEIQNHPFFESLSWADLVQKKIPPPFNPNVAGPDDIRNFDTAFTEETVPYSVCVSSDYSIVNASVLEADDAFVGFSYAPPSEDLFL
Protocol: as §1, §2, §3, §4, §5

[4] = system: HeLa; experiment: HeLa cell testing (Table 2); assay type: cell-based; settings: Homo sapiens; HeLa cells
[5] = system: 293T; experiment: 293T cell testing (Table 2); assay type: cell-based; settings: Homo sapiens, HEK-293T; 293T cells
[6] = system: 293T_O; experiment: 293T_O cell testing (Table 2); assay type: cell-based; settings: 293T_O cells
[7] = 50 μM ATP, read-out: Sgk2 (50 μM ATP)
[8] = 1 mM ATP, read-out: Sgk2 (1 mM ATP)
[9] = 50 μM ATP, read-out: Sgk1 (50 μM ATP)
[10] = 1 mM ATP, read-out: Sgk1 (1 mM ATP)

`COCCOc1cc(-c2ccc(NS(=O)(=O)c3cc(OC)ccc3F)cc2)cc2[nH]nc(N)c12` gave an IC50 [1, 7] of 8 nM, an IC50 [1, 8] of 21.3 nM and an IC50 [2, 9] of 27.7 nM. The IC50 [2, 10] was 92.8 nM and the IC50 [3] was 100 nM.
For `COc1ccc(F)c(S(=O)(=O)Nc2ccc(-c3cc4[nH]nc(N)c4c(C)n3)cc2)c1` [drawing 110], the IC50 [1, 7] was 3.1 nM, the IC50 [1, 8] was 5.3 nM and the IC50 [2, 9] was 10.6 nM. It also gave an IC50 [2, 10] of 8.5 nM and an IC50 [3] of 50 nM.
Work on `COc1ccc(F)c(S(=O)(=O)Nc2ccc(-c3ccc4c(N)n[nH]c4c3)cc2)c1` yielded an IC50 [1, 7] of 6.1 nM, an IC50 [1, 8] of 16 nM and an IC50 [2, 9] of 10.9 nM. It also gave an IC50 [2, 10] of 35.8 nM, an IC50 [4] of 13700 nM and an IC50 [5] of 56100 nM. The IC50 [6] was 47100 nM.
`COc1ccc(F)c(S(=O)(=O)Nc2ccc(-c3cnc4cn[nH]c4c3)cc2)c1` was tested, and the IC50 [1, 7] was 8.6 nM and 3.4 nM, the IC50 [1, 8] was greater than 200 nM and the IC50 [2, 10] was greater than 200 nM. The IC50 [4] was 13800 nM, the IC50 [5] was 66500 nM and the IC50 [6] was greater than 100000 nM.
Work on `CCOc1cc(-c2ccc(NS(=O)(=O)c3cc(OC)ccc3F)cc2)cc2[nH]nc(N)c12` yielded an IC50 [1, 7] of 12.3 nM, an IC50 [1, 8] of 29.9 nM and an IC50 [2, 9] of 11.8 nM. For the same compound, the IC50 [2, 10] was 2 nM and the IC50 [3] was 130 nM.
Compound `COc1ccc(F)c(S(=O)(=O)Nc2ccc(-c3cc4[nH]ncc4c(OCC4CNCCO4)n3)cc2)c1` (centres unmarked) [drawing 99] has an IC50 [1, 7] of 0.8 nM, an IC50 [1, 8] of 5.6 nM and an IC50 [2, 9] of 3.1 nM. The IC50 [2, 10] was 9.7 nM, the IC50 [4] was 35800 nM and the IC50 [5] was 47900 nM. For the same compound, the IC50 [6] was 61200 nM.
`COc1ccc(F)c(S(=O)(=O)Nc2ccc(-c3cc4[nH]ncc4c(SCC4CNCCO4)n3)cc2)c1` (centres unmarked) gave an IC50 [1, 7] of 3.4 nM, an IC50 [1, 8] of 4.1 nM and an IC50 [2, 9] of 2.3 nM. For the same compound, the IC50 [2, 10] was 6.6 nM, the IC50 [4] was 15600 nM and the IC50 [5] was 17900 nM. For the same compound, the IC50 [6] was 24500 nM.
In the case of `COc1ccc(F)c(S(=O)(=O)Nc2ccc(-c3ccc4cn[nH]c4n3)cc2)c1`, the IC50 [1, 7] is reported as 1.8 nM, the IC50 [1, 8] is reported as 66 nM and the IC50 [2, 9] is reported as 5.2 nM. For the same compound, the IC50 [2, 10] was 150 nM and the IC50 [4] was greater than 50000 nM.
`O=S(=O)(Nc1ccc(-c2ccc3cn[nH]c3n2)cc1)c1cc(Cl)ccc1F` gave an IC50 [1, 7] of 5.9 nM, an IC50 [1, 8] of 169 nM and an IC50 [2, 9] of 97.9 nM. For the same compound, the IC50 [2, 10] was 77 nM and the IC50 [4] was 2170 nM.
In the case of `Nc1n[nH]c2nc(-c3ccc(NS(=O)(=O)c4cc(Cl)ccc4F)cc3)ccc12`, the IC50 [1, 7] is reported as 21.8 nM, the IC50 [1, 8] is reported as 569 nM and the IC50 [2, 9] is reported as 238 nM. It also gave an IC50 [2, 10] greater than 2000 nM and an IC50 [4] of 20100 nM.
`COc1ccc(F)c(S(=O)(=O)Nc2ccc(-c3cc(NCC4CNCCO4)c4cn[nH]c4c3)cc2)c1` (centres unmarked) gave an IC50 [1, 7] of 1.7 nM, an IC50 [1, 8] of 6.6 nM and an IC50 [2, 9] of 1.9 nM. For the same compound, the IC50 [2, 10] was 12.4 nM and the IC50 [3] was 150 nM.
`COc1ccc(F)c(S(=O)(=O)Nc2ccc(-c3cc(OC)c4c(N)n[nH]c4c3)cc2)c1` [drawing 108] showed an IC50 [1, 7] of 5.1 nM, an IC50 [1, 8] of 8.9 nM and an IC50 [2, 9] of 2.4 nM. It also gave an IC50 [2, 10] of 17.8 nM and an IC50 [3] of 40 nM.
`COc1ccc(F)c(S(=O)(=O)Nc2ccc(-c3cc4[nH]ncc4c(OCC4CNCCO4)n3)cc2)c1` (centres unmarked) [drawing 105] showed an IC50 [1, 7] of 1.6 nM, an IC50 [1, 8] of 10 nM and an IC50 [2, 9] of 1.3 nM. For the same compound, the IC50 [2, 10] was 13.4 nM and the IC50 [3] was 100 nM.
For `COc1ccc(F)c(S(=O)(=O)Nc2ccc(-c3cc(C)c4c(N)n[nH]c4n3)cc2)c1` [drawing 111], the IC50 [1, 7] was 4.1 nM, the IC50 [1, 8] was 3.7 nM and the IC50 [2, 9] was 2.8 nM. It also gave an IC50 [2, 10] of 5.5 nM and an IC50 [3] of 30 nM.
With `COc1ccc(F)c(S(=O)(=O)Nc2ccc(-c3cc(CCC4CNCCO4)c4cn[nH]c4c3)cc2)c1` (centres unmarked) the IC50 [1, 7] was 4.1 nM, the IC50 [1, 8] was 8.2 nM and the IC50 [2, 9] was 3.2 nM. For the same compound, the IC50 [2, 10] was 11.6 nM and the IC50 [3] was 150 nM.
Compound `COc1ccc(F)c(S(=O)(=O)Nc2ccc(-c3cc(OCCO)c4c(N)n[nH]c4c3)cc2)c1` has an IC50 [1, 7] of 7.9 nM, an IC50 [1, 8] of 6.2 nM and an IC50 [2, 9] of 5.1 nM. For the same compound, the IC50 [2, 10] was 7.7 nM and the IC50 [3] was 90 nM.
Work on `O=S(=O)(Nc1ccc(-c2ccc3cn[nH]c3c2)cc1)c1cc(Cl)ccc1F` yielded an IC50 [1, 7] of 32.1 nM, an IC50 [1, 8] of 664 nM and an IC50 [2, 9] of 124 nM. The IC50 [2, 10] was 352 nM and the IC50 [4] was 2470 nM.
For `COc1ccc(F)c(S(=O)(=O)Nc2ccc(-c3ccc4c(N)n[nH]c4n3)cc2)c1` [drawing 140], the IC50 [1, 7] was 2 nM, the IC50 [1, 8] was 6.5 nM and the IC50 [2, 9] was 2.9 nM. It also gave an IC50 [2, 10] of 6.5 nM, an IC50 [3] of 70 nM and an IC50 [4] of 21400 nM.
